The source of these data is patent US20100093871A1, “AGENT FOR PREVENTION OR TREATMENT OF IRON OVERLOAD DISORDERS” (MEIJI SEIKA KAISHA, LTD., priority 2007, published 2010).

The test system of this assay is serum ferritin. The experiment in a line: Serum ferritin in chronic hepatitis C patients after oral administration for 24 weeks. The format is in vivo, human (patients suffering from chronic hepatitis C). The note with it: patients with chronic hepatitis C, 50 mg/day or 200 mg/day in two divided doses, CLIA, percentage change vs level before administration. Here is the method:
To patients suffering from chronic hepatitis C, 22β-methoxyolean-12-ene-3β,24(4β)-diol was orally administered for 24 weeks, at a daily dose of 50 mg/day or 200 mg/day. The administration of 22β-methoxyolean-12-ene-3β,24(4β)-diol in each administration group was carried out by orally administering half of each daily dose twice a day after eating breakfast and dinner. For example, in the 50 mg/day administration group, each day 25 mg of the drug was orally administered after breakfast and 25 mg of the drug was orally administered after dinner. Immediately after the beginning of the administration, and after 2, 4, 8, 12, 16, 20, and 24 weeks from the beginning of the administration, serum samples were collected to determine serum ferritin contained in the samples. […] Serum ferritin was determined by a chemiluminescence immunoassay (CLIA) with reference to a method described in a protocol attached to Chemilumi ACS-Ferritin II (Bayer Medical). Each serum ferritin level contained in each serum sample collected was indicated as percentage, with the serum ferritin level before the administration of 22β-methoxyolean-12-ene-3β,24(4β)-diol regarded as […], and an average and a median of all patients were calculated.

SMILES strings stand for the structures.

Turning to `CO[C@@H]1CC(C)(C)CC2C3=CCC4[C@@]5(C)CC[C@H](O)[C@](C)(CO)C5CC[C@@]4(C)[C@]3(C)CC[C@]21C` (stereo partly drawn) [22β-methoxyolean-12-ene-3β,24(4β)-diol], the serum ferritin level entry is on record as “serum ferritin was lowered”.
